Experimental data as given in the supplement of paper PMC4858399.

How the values were obtained:
Conditions in all cases: exposure time 48 h
[1] = system: Caenorhabditis elegans N2; assay: AC50 for larval growth inhibition (Hill fit); higher = less potent
How it was run: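 Synchronised C. elegans N2 L1 larvae (50 per well, 96-well plates) were grown for 48 h at 20°C in K-medium with killed OP50, 1% DMSO and 0.5–200 µM chemical. The COPAS Biosort measured each worm's size as extinction, which was log-transformed and averaged per well. AC50 came from a constrained Hill fit by weighted genetic-algorithm regression on wells with at least 10 worms. Out-of-range values are censored.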

[2] = system: Caenorhabditis elegans N2; assay: lowest effective concentration for larval growth inhibition (size below effect threshold); higher = less potent
How it was run: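 Worm size was taken as per-worm extinction on the Biosort, log-transformed and turned into well means. The larvae (C. elegans N2, L1 stage, 50 per 96-well) had spent 48 h at 20°C in K-medium with killed bacteria, 1% DMSO and 0.5, 1, 5, 10, 50, 100 or 200 µM chemical. The lowest effective concentration marks the first dose where the plate-adjusted mean size drops under a cutoff and remains under it at every higher dose; the cutoff is 5.665.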

[3] = system: Caenorhabditis elegans N2; assay: mean nematode size ln(EXT) after 48 h, plate-adjusted (DMSO control set to 6) (ln(EXT), control-adjusted); higher = larger nematodes / less growth inhibition
How it was run: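 Synchronised C. elegans N2 L1 larvae (50 per well, 4–6 wells per treatment) were grown for 48 h at 20°C in K-medium with killed OP50, 1% DMSO and 0.5–200 µM chemical. The Biosort measured each worm's extinction, and debris was removed by a growth model. Values were natural-logged and averaged per well. Mean size was then plate-adjusted by subtracting the vehicle control mean and adding 6.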

Compound | AC50 for larval growth inhibition [1] [µM] | lowest effective concentration [2] [µM] | mean nematode size ln(EXT) (ln) ([3]; 0.5 µM) | mean nematode size ln(EXT) (ln) ([3]; 1 µM) | mean nematode size ln(EXT) (ln) ([3]; 5 µM) | mean nematode size ln(EXT) (ln) ([3]; 10 µM) | mean nematode size ln(EXT) (ln) ([3]; 50 µM) | mean nematode size ln(EXT) (ln) ([3]; 100 µM) | mean nematode size ln(EXT) (ln) ([3]; 200 µM)
CCC(C)(C)c1ccc(O)c(C(C)(C)CC)c1 [Phenol, 2,4-bis(1,1-dimethylpropyl)-] | 175 | 10 | 5.8 | 5.87 | 5.76 | 5.65 | 5.4 | 4.93 | 4.37
CC(=O)NC1(c2cccc(F)c2)CCN(CC[C@@]2(c3ccc(Cl)c(Cl)c3)CN(c3ccccc3)C(=O)CO2)CC1 | > 200 | 100 | 5.89 | 5.91 | 5.85 | 5.88 | 5.82 | 5.52 | 5.02
CCOP(=S)(OCC)SCn1c(=O)oc2cc(Cl)ccc21 [Phosalone] | 9.77 | 10 | 5.76 | 5.7 | 5.97 | 4.73 | 4.26 | 4.06 | 3.72
CNC(=O)Oc1cccc2c1OC(C)(C)O2 [Bendiocarb] | > 200 | 200 | 5.79 | 5.85 | 5.8 | 5.79 | 5.81 | 5.76 | 5.25
Nn1cnnc1 [4-Amino-4H-1,2,4-triazole] | > 200 | 200 | 5.81 | 5.85 | 5.83 | 5.8 | 5.57 | 5.78 | 5.36
O=C(N[C@H]1CN2CCC1CC2)c1cc2ccoc2cn1 | > 200 | 200 | 5.73 | 5.89 | 5.88 | 5.78 | 5.86 | 5.86 | 5.65
CC(C)=CCCC(C)CCO (stereo not given) [Citronellol] | > 200 | 200 | 5.82 | 5.87 | 5.92 | 5.78 | 5.86 | 5.73 | 5.6
Cc1ccc(-c2cc(C(F)(F)F)nn2-c2ccc(S(N)(=O)=O)cc2)cc1 [Celecoxib] | 30.3 | 50 | 5.9 | 5.92 | 5.8 | 5.81 | 4.7 | 4.53 | 4.22
Brc1ccc(Oc2ccccc2)cc1 [p-Bromodiphenyl-ether] | 52.5 | 5 | 5.7 | 5.75 | 5.55 | 5.54 | 4.74 | 4.03 | 3.65
O=[N+]([O-])c1ccccc1 [Nitrobenzene] | 193 | 200 | 6.01 | 5.97 | 6.01 | 6.12 | 6.23 | 6.14 | 5.65
Cc1ccccc1CO[C@@H]1C[C@@]2(C(C)C)CCC1(C)O2 [Cinmethylin] | > 200 | 200 | 5.94 | 5.99 | 6 | 6.07 | 5.92 | 5.77 | 4.9
C[C@]12CC[C@@H]3c4ccc(O)cc4CC[C@H]3[C@@H]1CC[C@@H]2O [beta-Estradiol] | 188 | 200 | 5.85 | 5.81 | 5.8 | 5.84 | 5.75 | 5.94 | 5.2
O=C(OCCCCCOC(=O)c1ccccc1)c1ccccc1 [1,5-Pentanediol,1,5-dibenzoate] | > 200 | 200 | 5.88 | 5.89 | 5.84 | 5.85 | 5.86 | 5.98 | 5.48
CC[C@H](C)C(=O)O[C@H]1C[C@@H](C)C=C2C=C[C@H](C)[C@H](CC[C@@H]3C[C@@H](O)CC(=O)O3)[C@H]21 [Lovastatin] | > 200 | 50 | 5.85 | 5.83 | 5.8 | 5.83 | 5.65 | 5.23 | 5.06
COC(=O)N(C(=O)N1CO[C@@]2(C(=O)OC)Cc3cc(Cl)ccc3C2=N1)c1ccc(OC(F)(F)F)cc1 [Indoxacarb] | 6.41 | 5 | 6 | 5.91 | 5.25 | 4.02 | 3.6 | 3.56 | 3.48
CC(Cc1ccc(OCC(=O)O)cc1)NCC(O)c1csc(C(F)(F)F)n1 (stereo not given) | > 200 | 200 | 5.86 | 5.88 | 5.84 | 6.03 | 5.84 | 5.89 | 5.4
COC(=O)C(C)Oc1ccc(Oc2ccc(Cl)cc2Cl)cc1 (stereo not given) [Diclofop-methyl] | > 200 | 50 | 6.06 | 6.74 | 6 | 5.92 | 5.56 | 5.39 | 4.62
ClC1=C(Cl)C2(Cl)C3C(Cl)C(Cl)CC3C1(Cl)C2(Cl)Cl (stereo not given) [Chlordane] | 8.58 | 5 | 5.98 | 5.93 | 5.24 | 4.63 | 3.8 | 3.81 | 3.48
C=CCC1=C(C)C(OC(=O)C2C(C=C(C)C)C2(C)C)CC1=O (stereo not given) [Allethrin] | > 200 | 50 | 5.9 | 5.91 | 5.87 | 5.86 | 5.64 | 5.59 | 5.23
Cc1cc2c(cc1C(F)(F)F)N(C(=O)Nc1ccc(Oc3cccnc3C)nc1)CC2 | > 200 | 200 | 5.88 | 5.73 | 5.86 | 5.71 | 5.75 | 5.67 | 5.57
